Assay [1] has as its system Eotaxin-3 (CCL26) release. The assay is described as follows: Human Whole Blood Eotaxin-3 Assay (IL-4 stimulated). The format is cell-based. The conditions noted are these: Homo sapiens; geometric mean across assay runs and compound batches; EC50 provided for test compounds with >80% Emax. On the procedure: This was a human whole blood assay using recombinant human Interleukin 4 to stimulate the blood and measuring the ability of the test compounds to inhibit eotaxin-3 release. The biological activities of the test compounds have been tested in human whole blood stimulated with IL-4 measuring Eotaxin-3 release. The test compounds were added to 384 well clear flat-bottom plate in a 4-fold serial dilution in triplicates using a liquid handler. Human whole blood stabilized in lithium-heparin tubes was added in a volume of 65 μL per well, resulting in a final DMSO concentration of 0.5%. The plate is incubated for 2 h at 37° C. under 5% CO2/95% air. Subsequently, 5 μL of recombinant human IL-4 (R&D Systems, cat #204-ILB) was added to the wells to a final concentration of 400 pM. The plate was incubated for 48 h at 37° C. under 5% CO2/95% air. The plate was spun down for 10 minutes at 500×g and 20 μL supernatant was harvested and transferred to a 384 well v-bottom plate using a liquid handler and stored at −20° C. until further analysis. 10 μL supernatant was used to measure the level of Eotaxin-3 (CCL26) using Human Eotaxin-3 MSD kit from Mesocsale (Cat #K251UEK-4). The assay was performed according to the manufacture instructions.

A further assay addresses T1, STAT6 (Homo sapiens, UniProt P42226).
T1 construct: These cells express endogenous STAT6; host or cells: HeLa LgBiT clone 4.14 (CRISPR knock-in of HiBiT into the endogenous STAT6 gene)
T1 sequence (P42226 1-847): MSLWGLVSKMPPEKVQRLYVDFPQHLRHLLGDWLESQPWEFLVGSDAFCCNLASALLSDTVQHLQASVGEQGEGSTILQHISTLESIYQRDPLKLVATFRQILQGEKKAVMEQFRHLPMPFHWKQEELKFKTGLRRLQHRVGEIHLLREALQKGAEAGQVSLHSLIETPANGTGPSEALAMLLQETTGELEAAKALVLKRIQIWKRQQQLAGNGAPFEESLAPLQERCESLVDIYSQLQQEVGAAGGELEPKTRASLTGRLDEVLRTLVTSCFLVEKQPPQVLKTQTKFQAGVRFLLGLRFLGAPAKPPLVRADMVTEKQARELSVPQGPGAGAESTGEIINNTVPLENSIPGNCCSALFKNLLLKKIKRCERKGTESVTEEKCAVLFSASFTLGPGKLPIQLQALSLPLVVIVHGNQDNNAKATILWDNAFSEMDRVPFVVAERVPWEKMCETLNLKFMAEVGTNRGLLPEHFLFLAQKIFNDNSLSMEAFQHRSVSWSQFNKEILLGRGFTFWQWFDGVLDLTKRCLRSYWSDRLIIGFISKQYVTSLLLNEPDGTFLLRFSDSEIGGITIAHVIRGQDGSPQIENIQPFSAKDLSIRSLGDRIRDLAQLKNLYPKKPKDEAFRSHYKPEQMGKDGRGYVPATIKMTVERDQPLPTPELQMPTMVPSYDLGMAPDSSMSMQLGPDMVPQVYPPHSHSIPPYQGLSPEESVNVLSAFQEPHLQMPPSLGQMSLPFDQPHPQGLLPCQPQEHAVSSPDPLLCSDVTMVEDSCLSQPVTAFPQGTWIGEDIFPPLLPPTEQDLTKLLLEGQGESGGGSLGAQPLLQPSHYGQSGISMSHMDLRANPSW
The assay is described as follows: STAT6 Degrader Assay (HiBiT based, HeLa LgBiT clone 4.14 cells). Format: cell-based. The conditions noted are these: for Emax: HeLa, maximal STAT6 degradation; for DC50: geometric mean across assay runs and compound batches, DC50 provided for test compounds with >80% Emax, read-out: STAT6 degradation DC50. On the procedure:
This was a HiBit based assay. A HeLa cell line stably transfected with a small protein, LgBit (Large Bit) was obtained from Promega. These cells express endogenous STAT6. A small 11 amino acid gene sequence (HiBiT) was inserted in the STAT6 gene using CRISPR technology. Once STAT6 protein is expressed in the cells, the HiBiT sequence will bind the LgBit in the cells resulting in a functional NanoBiT protein, giving a luminescent tag to STAT6. Single cell clones were prepared and the clone 4.14 was selected for the assay based on that clone showing high luminescence, high STAT6 phosphorylation upon stimulation with IL-4, and inhibition of luminescence when cells were treated with STAT6 siRNA. HeLa LgBiT clone 4.14 cells were suspended in DMEM with 10% FCS, 1% Pen/Strep, Na-pyrovate and Hygromycin B, at a concentration of 1.25*105 cells pr mL. 5000 cells were added pr well of a 384 well plate and 20 nL of compound was added by Echo® liquid handler. NN6394A (terfenadine, a toxic compound) was added to control wells at 50 μM concentration to establish the assay window. In these wells the cells are dead which equals 100% degradation of STAT6. After 4-24 h of incubation at 37° C. under 5% CO2/95% air, 5 μL substrate (Nano-GLO®) was added to the wells and the plates were centrifuged and incubated for 0.5 h. The luminescence in the wells as a measure of non-degraded STAT6 was measured in a plate reader (BMG Pherastar FSX). The measured DC50 (in nM) was determined.
A general note: HiBiT is a short tag that completes a luciferase, so light tracks the accessible tagged protein.

Each structure is given as a SMILES string. Where only a bound is given, the exact number is not on record here.

Turning to `CNc1cc(=O)n(-c2ccnc3c2cc([C@H](C)N2CC=C(c4c(C)cc(C(=O)N5CCC(CN6CCN(c7ncc(NC8CCC(=O)NC8=O)cc7F)CC6)CC5)cc4F)CC2)n3C)cc1F` (stereo partly drawn) [Example 2g64, 3-((5-fluoro-6-(4-((1-(3-fluoro-4-(1-((S)-1-(4-(5-fluoro-4-(methylamino)-2-oxopyridin-1(2H)-yl)-1-meth-yl-1H-pyrrolo[2,3-b]pyridin-2-yl)ethyl)-1,2,3,6-tetrahydro-pyridin-4-yl)-5-methylbenzo-yl)piperidin-4-yl)methyl)-piperazin-1-yl)pyridin-3-yl)-amino)piperidine-2,6-dione], the concentration giving a half-maximal response (EC50) in assay [1] was determined as 25.7 nM. Regarding `CNc1nc(=O)n(-c2ccnc3c2cc([C@H](C)N2CC=C(c4c(C)cc(C(=O)N5CCn6nc(CN7CCC(c8ccc(NC9CCC(=O)NC9=O)c(OC)c8)CC7)cc6C5)cc4F)CC2)n3C)cc1F` (stereo partly drawn) [Example 2g8, 3-((4-(1-((5-(3-fluoro-4-(1-((S)-1-(4-(5-fluoro-4-(meth-ylamino)-2-oxopyrimidin-1(2H)-yl)-1-methyl-1H-pyrrolo[2,3-b]pyridin-2-yl)-ethyl)-1,2,3,6-tetrahydro-pyridin-4-yl)-5-methylbenzo-yl)-4,5,6,7-tetrahydropyrazolo [1,5-a]pyrazin-2-yl)methyl)-piperidin-4-yl)-2-methoxy-phenyl)amino)-piperidine-2,6-dione], the response in assay [1] was half-maximal at 1.7 nM (EC50). The same measure, in the same setting: under `CNc1cc(=O)n(-c2ccnc3c2cc(CN2CC=C(c4c(F)cc(C(=O)N5CCC(CN6CCN(c7ccc(N[C@@H]8CCC(=O)NC8=O)cc7F)CC6)CC5)cc4F)CC2)n3C)cc1F` (single isomer, unassigned) [Example 2g67] stands 99.4 nM; under `CNc1ccn(-c2ccnc3c2cc([C@H](C)N2CC=C(c4c(F)cc(C(=O)N5CCC(CN6CCN(c7ccc(N[C@@H]8CCC(=O)NC8=O)cc7F)CC6)CC5)cc4F)CC2)n3C)c(=O)c1` (single isomer, unassigned) [Example 2g105], 8.7 nM.

Regarding `CNc1cc(=O)n(-c2ccnc3c2cc([C@@H](C)N2CCC(c4c(F)cc(C(=O)N5CCn6nc(CN7CCC(c8ccc(NC9CCC(=O)NC9=O)cc8F)CC7)cc6C5)cc4F)CC2)n3C)cc1F` (stereo partly drawn) [Example 2g51, 3-((4-(1-((5-(3,5-difluoro-4-(1-((R)-1-(4-(5-fluoro-4-(methylamino)-2-oxopyridin-1(2H)-yl)-1-methyl-1H-pyrrolo[2,3-b]pyridin-2-yl)-ethyl)piperidin-4-yl)benzoyl)-4,5,6,7-tetrahydropyrazolo [1,5-a]pyrazin-2-yl)methyl)-piperidin-4-yl)-3-fluorophen-yl)amino)piperidine-2,6-dione], in assay [1], the EC50 stood at 51.7 nM. Molecule `CNc1ccn(-c2ccnc3c2cc([C@H](C)N2CC=C(c4c(C)cc(C(=O)N5CCC(CN6CCN(c7ccc(NC8CCC(=O)NC8=O)c(OC)c7)CC6)CC5)cc4F)CC2)n3C)c(=O)c1` (stereo partly drawn) [Example 2g125, 3-((4-(4-((1-(3-fluoro-5-meth-yl-4-(1-((S)-1-(1-methyl-4-(4-(methylamino)-2-oxopyridin-1(2H)-yl)-1H-pyrrolo[2,3-b]pyridin-2-yl)ethyl)-1,2,3,6-tetrahydropyridin-4-yl)benzo-yl)piperidin-4-yl)methyl)-piperazin-1-yl)-2-methoxy-phenyl)amino)piperidine-2,6-dione] gave an EC50 in assay [1] of 12.9 nM.

On to `CNc1nc(=O)n(-c2ccnc3c2cc(CN2CCC(c4c(F)cc(C(=O)N5CCn6nc(CN7CCC(c8ccc(NC9CCC(=O)NC9=O)c(OC)c8)CC7)cc6C5)cc4F)CC2)n3C)cc1F` (stereo not shown) [Example 2c50, 3-((4-(1-((5-(3,5-difluoro-4-(1-((4-(5-fluoro-4-(methyl-amino)-2-oxopyrimidin-1(2H)-yl)-1-methyl-1H-pyr-rolo[2,3-b]pyridin-2-yl)meth-yl)piperidin-4-yl)benzoyl)-4,5,6,7-tetrahydropyrazolo-[1,5-a]pyrazin-2-yl)methyl)-piperidin-4-yl)-2-methoxy-phenyl)amino)piperidine-2,6-dione], for which a half-maximal response in assay [1] (EC50) required 18.7 nM. Regarding `CNc1ccn(-c2ccnc3c2cc([C@H](C)N2CC=C(c4c(C)cc(C(=O)N5CCn6c(nnc6C6CCN(Cc7ccc(NC8CCC(=O)NC8=O)c(OC)c7)CC6)C5)cc4F)CC2)n3C)c(=O)c1` (stereo partly drawn) [Example 2g9, 3-((4-((4-(7-(3-fluoro-5-methyl-4-(1-((S)-1-(1-methyl-4-(4-(methylamino)-2-oxo-pyridin-1(2H)-yl)-1H-pyrrolo [2,3-b]pyridin-2-yl)ethyl)-1,2,3,6-tetrahydropyridin-4-yl)benzoyl)-5,6,7,8-tetra-hydro[1,2,4]triazolo[4,3-a]pyrazin-3-yl)piperidin-1-yl)-methyl)-2-methoxyphenyl)-amino)-piperidine-2,6-dione], it took 803 nM to reach a half-maximal effect in assay [1] (EC50). Same read-out and setting: under `CNc1ccn(-c2ccnc3c2cc([C@H](C)N2CC=C(c4c(C)cc(C(=O)N5CCC(CN6CCN(c7ncc(N[C@@H]8CCC(=O)NC8=O)cc7F)C[C@H]6C)CC5)cc4F)CC2)n3C)c(=O)c1` (single isomer, unassigned) [Example 2g115] stands 9.5 nM. With `CNc1ccn(-c2ccnc3c2cc(CN2CCC(c4c(C)cc(C(=O)N5CCC(CN6CCN(c7ccc(NC8CCC(=O)NC8=O)cc7F)CC6)CC5)cc4F)CC2)n3C)c(=O)c1` (stereo not shown) [Example 2g60, 3-((3-fluoro-4-(4-((1-(3-fluoro-5-methyl-4-(1-((1-methyl-4-(4-(methylamino)-2-oxopyridin-1(2H)-yl)-1H-pyrrolo[2,3-b]pyridin-2-yl)-methyl)piperidin-4-yl)benzo-yl)piperidin-4-yl)methyl)-piperazin-1-yl)phenyl)amino)-piperidine-2,6-dione], the Emax at STAT6 is under 20%. As to `CNc1ccn(-c2ccnc3c2cc(CN2CCC(c4c(C)cc(C(=O)N5CCC(CN6CCN(c7ccc(N[C@@H]8CCC(=O)NC8=O)cc7F)CC6)CC5)cc4F)CC2)n3C)c(=O)c1` (single isomer, unassigned) [Example 2g61], the 50% degradation concentration (DC50) at STAT6 is 14.8 nM. In the case of `Cc1cc(C(=O)N2CCC(CN3CCN(c4ccc(N[C@H]5CCC(=O)NC5=O)cc4F)C[C@H]3C)CC2)cc(F)c1C1=CCN([C@@H](C)c2cc3c(-n4ccc5c(c4=O)CCN5)ccnc3n2C)CC1` (single isomer, unassigned) [Example 2g23], the DC50 at STAT6 amounted to 3.3 nM.

As to `C[C@@H](c1cc2c(-n3cc(F)c4c(c3=O)CCN4)ccnc2n1C)N1CC=C(c2c(F)cc(C(=O)N3CCC(CN4CCN(c5ccc(NC6CCC(=O)NC6=O)cc5F)CC4)CC3)cc2F)CC1` (stereo partly drawn) [Example 2g131, 3-((4-(4-((1-(3,5-difluoro-4-(1-((S)-1-(4-(7-fluoro-4-oxo-1,2,3,4-tetrahydro-5H-pyrrolo [3,2-c]pyridin-5-yl)-1-methyl-1H-pyrrolo[2,3-b]pyridin-2-yl)ethyl)-1,2,3,6-tetrahydro-pyridin-4-yl)benzoyl)piper-idin-4-yl)methyl)piperazin-1-yl)-3-fluorophenyl)amino)-piperidine-2,6-dione], the maximal response (Emax) at STAT6 was in the range of 50 to 60%.

As usually defined, the EC50 is the concentration needed to bring the measured effect to its halfway point. Higher therefore signals lower potency in that assay. One may read the Emax as the size of the effect at its maximum, as opposed to the concentration needed. As a reminder, the DC50 is the concentration at which degradation of the target reaches its halfway point.

(Values after patent publication US20250320205A1, “STAT6 DEGRADERS” (Gilead Sciences, Inc., priority 2024, published 2025).)
